Source: patent US4272529A, “O-Alcoxycarbonylphenyl esters of anthranilic acid with therapeutical activity, method for their preparation and related pharmaceutical composition” (Simes S.p.A., priority 1979, dated 1981)
“And” between values parts separate entries of the source, which are not always exact repeats. Equal values may be shown once. Read-outs that look alike come from different tables or passages of the source.

Tests used:
[1] = test system: carrageenin induced edema in the rat; test: Inhibition of the carrageenin induced edema in the rat, further series (right rear paw vs left rear paw); format: in vivo; details: for Inhibition of the carrageenin induced edema: 3 hours after carrageenin
Protocol: The volume difference between the two paws was compared with the values of a control group. In this case too, the carrageenin was injected one hour after the oral administration of the substances being tested as an aqueous suspension; the edema was evaluated 3 hours after the carrageenin injection.

[2] = test system: adjuvant induced arthritis in the rat; test: Adjuvant induced arthritis in the developing phase; format: in vivo, Lewis rats; details: for Paw volume, injected paw (3rd day) / Paw volume, non injected paw (14th day): unit assumed
Protocol: In the first one, relating to the developing arthritis (Table 4), groups of six Lewis rats have been tested for each dosage; a group was used as the control. Suspensions of the compound being tested were administered for 14 days, starting on the same day of the adjuvant inoculation (0.3 mg of Mycobacterium butyricum in 0.1 ml of mineral oil) in the plantar surface of the right rear paw. The body weights and the volumes of both paws were measured at the third and fourteenth days; the body weights were taken as the toxicity indexes; the paw volumes were used for the calculation of the percent inhibition of the swelling as determined by the adjuvant induced arthritis (D. Walz et al., J. Pharmacol. Exper. Therap., 178, 223, 1971).

[3] = test system: adjuvant induced arthritis in the rat; details: for Non injected paw, 18th day, inhibition % / Non injected paw, 18th day, volume: daily 14th to 18th day
From the text: (§1) According to the second experimental model of adjuvant induced arthritis, there were studied the effects of the tested compounds in the disease already developed for 14 days; the substances were daily administered to groups of six rats for each dosage, from the 14th to the 18th day. […] There was also investigated the irritating property of the compound with respect to the gastric tissues in the rat.

[4] = test system: gastric tissues in the rat; test: Acute gastric irritation in the rat (24 hours); format: in vivo; details: for Acute gastric irritation score: sum of scores (0-4) of three rats
Protocol: The following score scale was used for the 24 hour test (Table 6): 0=no lesion or hemorrhage 1=one or two light lesions with hemorrhage 2=some light lesions with hemorrhage 3=some lesions with hemorrhage. […] 4=very serious lesions with hemorrhage. There were used three rats per each dosage and the sum of the scores was made.

[5] = test system: carragenin induced edema in the paw of rat; test: Carragenin induced edema in the paw of rat, 50% inhibiting oral dose; format: in vivo; details: for ED50: 1 hour before carrageenin, 3 to 4 hours after carrageenin
Protocol: The edema was induced by injecting the carrageenin (0.1 ml of the 1% suspension in physiological solution) in the plantar aponeurosis of the rear paw of the rat one hour after the oral administration of the tested substances; the edema inhibition was evaluated, 3 to 4 hours after the carrageenin injection, from the difference between the volumes of the paw before and after the carragenin injection with respect to a group of control animals.

[6] = in vivo; details: mouse, po
[7] = test system: gastric tissues in the rat
Protocol: as §1
The substances were administered as an aqueous suspension and the animals ware sacrificed after either 4 or 24 hours; the stomachs were removed, opened, washed under tap water and examined.
As regards the 4 hour test (Table 7), the following scoring was used, relating to the hemorrhage degree:
1=one or two points of light hemorrhage
2=some points of light hemorrhage
4=very serious hemorrhages.
In this case too the sum of the scores of three rats for each dosage is reported.

[8] = Toxicity in the rat; details: in vivo
Protocol: In the rat too the toxicity of compound I is very low (4,500 mg/kg).

[9] = test system: mouse; details: in vivo

COc1ccc2c(c1)c(CC(=O)O)c(C)n2C(=O)c1ccc(Cl)cc1 [Indomethacin, indomethacin]
Inhibition of the carrageenin induced edema ([1]; 5 mg/kg os): 40% | Inhibition %, injected paw (3rd day) ([2]; 1 mg/kg os): 39% | Inhibition %, non injected paw (14th day) ([2]; 1 mg/kg os): 32% | Paw volume, injected paw (3rd day) ([2]; 1 mg/kg os): 1.63 mL | Paw volume, non injected paw (14th day) ([2]; 1 mg/kg os): 1.55 mL | Non injected paw, 18th day, inhibition % ([3]; 1 mg/kg os): 38% | Non injected paw, 18th day, volume ([3]; 1 mg/kg os): 2.06 | Acute gastric irritation score ([4]; 40 mg/kg os): 5

O=C(O)c1ccccc1Nc1cccc(C(F)(F)F)c1 [Flufenamic acid, flufenamic acid]
ED50 [5]: 112 mg/kg and 400 µmol/kg | LD50 [6]: 875 mg/kg and 3100 µmol/kg

CC(=O)Oc1ccccc1C(=O)O [Acetylsalicylic acid, acetylsalicylic acid]
Inhibition of the carrageenin induced edema ([1]; 50 mg/kg os): 12% | Inhibition of the carrageenin induced edema ([1]; 100 mg/kg os): 35% | Inhibition of the carrageenin induced edema ([1]; 200 mg/kg os): 43% | Inhibition %, injected paw (3rd day) ([2]; 100 mg/kg os): 30% | Inhibition %, non injected paw (14th day) ([2]; 100 mg/kg os): 33% | Paw volume, injected paw (3rd day) ([2]; 100 mg/kg os): 1.65 mL | Paw volume, non injected paw (14th day) ([2]; 100 mg/kg os): 1.49 mL | Inhibition %, injected paw (3rd day) ([2]; 200 mg/kg os): 40% | Inhibition %, non injected paw (14th day) ([2]; 200 mg/kg os): 63% | Paw volume, injected paw (3rd day) ([2]; 200 mg/kg os): 1.53 mL | Paw volume, non injected paw (14th day) ([2]; 200 mg/kg os): 1.26 mL | Non injected paw, 18th day, inhibition % ([3]; 100 mg/kg os): 37% | Non injected paw, 18th day, volume ([3]; 100 mg/kg os): 2.10 | Non injected paw, 18th day, inhibition % ([3]; 200 mg/kg os): 47% | Non injected paw, 18th day, volume ([3]; 200 mg/kg os): 1.93 | Acute gastric irritation score ([7]; 150 mg/kg os, 4 hours, sum of hemorrhage scores (0-4) of three rats): 7

CCCCC1C(=O)N(c2ccccc2)N(c2ccccc2)C1=O [Phenylbutazone, phenylbutazone]
Inhibition of the carrageenin induced edema ([1]; 50 mg/kg os): 34% | Inhibition %, injected paw (3rd day) ([2]; 25 mg/kg os): 39% | Inhibition %, non injected paw (14th day) ([2]; 25 mg/kg os): 42% | Paw volume, injected paw (3rd day) ([2]; 25 mg/kg os): 1.66 mL | Paw volume, non injected paw (14th day) ([2]; 25 mg/kg os): 1.52 mL | Non injected paw, 18th day, inhibition % ([3]; 25 mg/kg os): 46% | Non injected paw, 18th day, volume ([3]; 25 mg/kg os): 1.95

COC(=O)c1ccccc1OC(=O)c1ccccc1Nc1cccc(C(F)(F)F)c1 [Compound I, N-m-trifluoromethyl-phenylanthranilate of O-methoxycarbonylphenyl]
LD50 [8]: 4500 mg/kg | ED50 [5]: 176 mg/kg and 420 µmol/kg | Anti-inflammatory activity (in words) ([5]; in terms of molar doses): like that of the flufenamic acid and higher than that of the methyl salicylate and that of the equimolar mixture of methyl salicylate and of flufenamic acid | Inhibition of the carrageenin induced edema ([1]; 1 mg/kg os): 0% | Inhibition of the carrageenin induced edema ([1]; 1.5 mg/kg os): 24% | Inhibition of the carrageenin induced edema ([1]; 5 mg/kg os): 21% | Inhibition of the carrageenin induced edema ([1]; 10 mg/kg os): 34% | Inhibition of the carrageenin induced edema ([1]; 25 mg/kg os): 42% | Inhibition of the carrageenin induced edema ([1]; 50 mg/kg os): 52% | ED30 ([1]; Rattus norvegicus, po, os, dose for which a 30% inhibition is obtained, read-out: ED30 (approximately)): ~8 mg/kg | Activity in carrageenin induced edema (in words) ([1]; rat, oral, compared with reference drugs): higher than that of aspirin and phenylbutazone, and lower than that of indomethacin | Inhibition %, injected paw (3rd day) ([2]; 5 mg/kg os): 48% | Inhibition %, non injected paw (14th day) ([2]; 5 mg/kg os): 10% | Paw volume, injected paw (3rd day) ([2]; 5 mg/kg os): 1.5 mL | Paw volume, non injected paw (14th day) ([2]; 5 mg/kg os): 1.64 mL | Inhibition %, injected paw (3rd day) ([2]; 10 mg/kg os): 53% | Inhibition %, non injected paw (14th day) ([2]; 10 mg/kg os): 47% | Paw volume, injected paw (3rd day) ([2]; 10 mg/kg os): 1.53 mL | Paw volume, non injected paw (14th day) ([2]; 10 mg/kg os): 1.47 mL | Inhibition %, injected paw (3rd day) ([2]; 25 mg/kg os): 36% | Inhibition %, non injected paw (14th day) ([2]; 25 mg/kg os): 35% | Paw volume, injected paw (3rd day) ([2]; 25 mg/kg os): 1.79 mL | Paw volume, non injected paw (14th day) ([2]; 25 mg/kg os): 1.67 mL | Increase of the weight of the rats (in words) ([2]; index of poor toxicity): normal | Inhibiting effect in developing arthritis (in words) ([2]; rat, in vivo): strong inhibiting effect | Non injected paw, 18th day, inhibition % ([3]; 5 mg/kg os): 27% | Non injected paw, 18th day, volume ([3]; 5 mg/kg os): 2.16 | Non injected paw, 18th day, inhibition % ([3]; 10 mg/kg os): 46% | Non injected paw, 18th day, volume ([3]; 10 mg/kg os): 1.82 | Non injected paw, 18th day, inhibition % ([3]; 25 mg/kg os): 100% | Non injected paw, 18th day, volume ([3]; 25 mg/kg os): 1.04 | Activity in already developed arthritis (in words) ([3]; compared with reference drugs): more active than acetylsalicylic acid and than phenylbutazone | Acute gastric irritation score ([4]; 25 mg/kg os): 1 | Acute gastric irritation score ([4]; 50 mg/kg os): 1 | Acute gastric irritation score ([4]; 100 mg/kg os): 2 | Acute gastric irritation score ([4]; 200 mg/kg os): 1 | Acute gastric irritation score ([4]; 400 mg/kg os): 1 | Acute gastric irritation score ([4]; 800 mg/kg os): 3 | Acute gastric irritation score ([4]; 1600 mg/kg os): 2 | Ulcerogenic / gastric irritating action (in words) ([4]; compared with reference drugs): highly less ulcerogenic than indomethacin and than acetylsalicylic acid | Ulcerogenic action (in words) ([7]; rat, in vivo): highly less ulcerogenic than indomethacin and than acetylsalicylic acid | Acute toxicity (in words) [9]: relevantly less toxic than the reference substances as well as than their mixture | LD50 [6]: 9500 mg/kg and 22800 µmol/kg

COC(=O)c1ccccc1O [Methyl salicylate, methyl salicylate]
ED50 [5]: 289 mg/kg and 1900 µmol/kg | LD50 [6]: 1160 mg/kg and 7600 µmol/kg
